Source: patent publication US12552748B2, “Pyridine (thio)amides as fungicidal compounds” (Bayer Aktiengesellschaft, priority 2020, dated 2026)
Marks after values point to notes of the source that are not given here.

Assay: physchem
Format: physicochemical
Method: Measurement of Log P values as provided herein was performed according to EEC directive 79/831 Annex V.A8 by HPLC (High Performance Liquid Chromatography) on reversed phase columns with the following methods: […] If more than one Log P value is available within the same method, all the values are given and separated by “+”. Calibration was done with straight-chain alkan2-ones (with 3 to 16 carbon atoms) with known Log P values (measurement of Log P values using retention times with linear interpolation between successive alkanones). Lambda-max-values were determined using UV-spectra from 200 nm to 400 nm and the peak values of the chromatographic signals

Row | SMILES | LogP | chromatographic logP
1 | CON=C(C)c1cc(C(=O)NCCc2ccc(C)cc2C)c(Oc2cccc(C(F)(F)F)c2)cn1 (mixture of isomers) [Compound I-251] | 5.36^[a] | 
2 | O=C(NCC(F)c1ccc(Cl)cc1Cl)c1cc(Cl)ncc1Oc1cccc(Cl)c1 (racemic) [Compound I-035] | 4.80^[a] | 
3 | O=C(NCC(F)c1ccc(Cl)cc1Cl)c1cc(Cl)ncc1Oc1cccc(C(F)F)c1 (racemic) [Compound I-037] | 4.40^[a] | 
4 | COc1cccc(Oc2cnc(Cl)cc2C(=O)NCC(F)c2ccc(Cl)cc2Cl)c1 (racemic) [Compound I-041] | 4.51^[a] | 
5 | Cc1cccc(Oc2cnc(Cl)cc2C(=O)NCC(F)c2ccc(Cl)cc2Cl)c1 (racemic) [Compound I-043] | 4.92^[a] | 
6 | Cc1cc(C(=O)NCC(F)c2ccc(Cl)cc2Cl)c(Oc2cccc(Cl)c2)cn1 (racemic) [Compound I-053] | 4.12^[a] | 
7 | Cc1ccc(C(F)CNC(=O)c2cc(C)ncc2Oc2cccc(Cl)c2)c(Cl)c1 (racemic) [Compound I-054] | 3.98^[a] | 
8 | Cc1cc(C(=O)NCC(F)c2ccc(Cl)cc2Cl)c(Oc2cccc(C(F)F)c2)cn1 (racemic) [Compound I-055] | 3.78^[a] | 
9 | Cc1cccc(Oc2cnc(C)cc2C(=O)NCC(F)c2ccc(C)cc2Cl)c1 (racemic) [Compound I-056] | 3.96^[a] | 
10 | O=C(NCC(F)c1ccc(Cl)cc1Cl)c1cc(Cl)ncc1Oc1cccc(C2CC2)c1F (racemic) [Compound I-060] | 5.17^[a] | 
11 | O=C(NCC(F)c1ccc(Cl)cc1Cl)c1cc(Cl)ncc1Oc1cccc(C2CC2)c1 (racemic) [Compound I-063] | 4.92^[a] | 
12 | Cc1ccc(C(F)CNC(=O)c2cc(C)ncc2Oc2cccc(C3CC3)c2)c(Cl)c1 (racemic) [Compound I-073] | 4.30^[a] | 
13 | O=C(NCC(F)c1ccc(Cl)cc1Cl)c1cc(C2CC2)ncc1Oc1cccc(C2CC2)c1F (racemic) [Compound I-074] | 5.32^[a] | 
14 | Cc1ccc(C(F)CNC(=O)c2cc(C)ncc2Oc2cccc(C3CC3)c2F)c(Cl)c1 (racemic) [Compound I-076] | 4.49^[a] | 
15 | Cc1cc(C(=O)NCC(F)c2ccc(Cl)cc2Cl)c(Oc2cccc(C3CC3)c2F)cn1 (racemic) [Compound I-078] | 4.49^[a] | 
16 | Cc1ccc(C(F)CNC(=O)c2cc(Cl)ncc2Oc2cccc(C(F)(F)F)c2)cc1C (racemic) [Compound I-079] | 4.70^[a] | 
17 | Cc1cc(C(F)F)ccc1C(F)CNC(=O)c1cc(Cl)ncc1Oc1cccc(C(F)(F)F)c1 (racemic) [Compound I-080] | 4.40^[a] | 
18 | COc1cc(C(F)CNC(=O)c2cc(Cl)ncc2Oc2cccc(C(F)(F)F)c2)ccc1Cl (racemic) [Compound I-081] | 4.37^[a] | 
19 | O=C(NCC(F)c1ccc(Cl)c(Cl)c1)c1cc(Cl)ncc1Oc1cccc(C(F)(F)F)c1 (racemic) [Compound I-082] | 4.81^[a] | 
20 | Cc1ccc(C(F)CNC(=O)c2cc(Cl)ncc2Oc2cccc(C(F)(F)F)c2)c(Cl)c1 (racemic) [Compound I-083] | 4.78^[a] | 
21 | Cc1cc(Cl)ccc1C(F)CNC(=O)c1cc(Cl)ncc1Oc1cccc(C(F)(F)F)c1 (racemic) [Compound I-084] | 4.81^[a] | 
22 | O=C(NCC(F)c1ccc(C2CC2)cc1Cl)c1cc(Cl)ncc1Oc1cccc(C(F)(F)F)c1 (racemic) [Compound I-085] | 5.08^[a] | 
23 | Cc1cc(Br)ccc1C(F)CNC(=O)c1cc(Cl)ncc1Oc1cccc(C(F)(F)F)c1 (racemic) [Compound I-086] | 4.93^[a] | 
24 | O=C(NCC(F)c1ccc(Cl)cc1Cl)c1cc(Cl)nc(F)c1Oc1cccc(C(F)(F)F)c1 (racemic) [Compound I-091] | 5.08^[a] | 

Row | SMILES | LogP | chromatographic logP
25 | Cc1cccc(Oc2cnc(C)cc2C(=O)NCC(F)c2ccc(Cl)cc2Cl)c1 (racemic) [Compound I-161] | 4.13^[a] | 
26 | C[Si](C)(C)C#Cc1cc(C(=O)NCC(F)c2ccc(Cl)cc2Cl)c(Oc2cccc(C(F)(F)F)c2)cn1 (racemic) [Compound I-176] | 6.01^[a] | 
27 | C#Cc1cc(C(=O)NCC(F)c2ccc(Cl)cc2Cl)c(Oc2cccc(C(F)(F)F)c2)cn1 (racemic) [Compound I-189] | 4.41^[a] | 
28 | CCc1cc(C(=O)NCC(F)c2ccc(Cl)cc2Cl)c(Oc2cccc(C3CC3)c2)cn1 (racemic) [Compound I-190] | 4.92^[a] | 
29 | O=C(NCC(F)c1ccc(Cl)cc1Cl)c1cc(-c2ccncc2Cl)ncc1Oc1cccc(C(F)(F)F)c1 (racemic) [Compound I-195] | 4.68^[a] | 
30 | Cc1ccc(C(F)CNC(=O)c2cc(C)ncc2Oc2cccc(C(F)(F)F)c2)c(Cl)c1 (racemic) [Compound I-263] | 4.08^[a] | 
31 | Cc1ccc(CCNC(=O)c2cc(Cl)ncc2Oc2cccc(C3CC3F)c2)c(C)c1 (single isomer, unassigned) [Compound I-265] | 4.70^[a] | 
32 | O=C(O)c1cc(Cl)ncc1Oc1cccc(C(F)(F)F)c1 [Compound 1-001] | 2.84^[a] | 
33 | C#Cc1cc(C(=O)O)c(Oc2cccc(C(F)(F)F)c2)cn1 [Compound 1-002] | 2.39^[a] | 
34 | C#Cc1cc(C(=O)OC)c(Oc2cccc(C(F)(F)F)c2)cn1 [Compound 1-003] | 3.46^[a] | 
35 | COC(=O)c1cc(C#C[Si](C)(C)C)ncc1Oc1cccc(C(F)(F)F)c1 [Compound 1-004] | 5.35^[a] | 
36 | O=C(O)c1cc(Cl)ncc1Oc1cccc(Cl)c1 [Compound 1-005] | 2.76^[a] | 
37 | O=C(O)c1cc(Cl)ncc1Oc1cccc(C(F)F)c1 [Compound 1-006] | 2.48^[a] | 
38 | COc1cccc(Oc2cnc(Cl)cc2C(=O)O)c1 [Compound 1-007] | 2.34^[a] | 
39 | Cc1cccc(Oc2cnc(Cl)cc2C(=O)O)c1 [Compound 1-008] | 2.60^[a] | 
40 | O=C(O)c1cc(Cl)ncc1Oc1cccc(C2CC2)c1F [Compound 1-009] | 2.97^[a] | 
41 | O=C(O)c1cc(Cl)ncc1Oc1cccc(C2CC2)c1 [Compound 1-010] | 2.87^[a] | 
42 | CC(=O)c1cc(C(=O)O)c(Oc2cccc(C(F)(F)F)c2)cn1 [Compound 1-011, 2-acetyl-5-[3-(trifluoromethyl)phenoxy]pyridine-4-carboxylic acid] |  | 2.54
43 | COC(=O)c1cc(C(C)=O)ncc1Oc1cccc(C(F)(F)F)c1 [Compound 1-012, methyl 2-acetyl-5-[3-(trifluoromethyl)phenoxy]pyridine-4-carboxylate] |  | 3.59
44 | C=C(OCC)c1cc(C(=O)OC)c(Oc2cccc(C(F)(F)F)c2)cn1 [Compound 1-013, methyl 2-(1-ethoxyvinyl)-5-[3-(trifluoromethyl)phenoxy]pyridine-4-carboxylate] |  | 4.7
45 | O=C(O)c1cc(Cl)nc(F)c1Oc1cccc(C(F)(F)F)c1 [Compound 1-014, 6-chloro-2-fluoro-3-[3-(trifluoromethyl)phenoxy]pyridine-4-carboxylic acid] |  | 2.95
46 | N#Cc1nc(Cl)cc(C(=O)O)c1Oc1cccc(C(F)(F)F)c1 [Compound 1-016] | 2.40^[a] | 
47 | COc1cc(C(=O)O)c(Oc2cccc(C(F)(F)F)c2)cn1 [Compound 1-017] | 2.86^[a] | 
48 | COc1cc(C(=O)NCCc2ccc(C)cc2C)c(Oc2cccc(C(F)(F)F)c2)cn1 [Compound 1-160] | 4.69^[a] | 
